Measurements reported in article PMC6752721 (Chembiochem : a European journal of chemical biology, 2019).
Where a SMILES comes first, the peptide text is derived from it. [ ]: non-standard residue; d: D form. The star is where a group is joined. Decanoyl = CCCCCCCCCC(=O)*; Orn = NCCC[C@H](N)C(=O)O; Dap = NC[C@H](N)C(=O)O; NHDecyl = CCCCCCCCCCN*

Key:
[1] = system: HeLa cells; assay: Cytosolic entry efficiency of naphthofluorescein; type: cell-based; conditions: 10% FBS, flow cytometry; for fold decrease in CPP activity (cellular entry efficiency) relative to peptide 4 / fold increase in CPP activity (cellular entry efficiency) relative to peptide 4: 5 μM NF-labeled peptide, 2 h
[2] = system: HeLa cells; assay: MTT cytotoxicity assay; type: cell-based

SMILES	fold decrease in CPP activity (cellular entry efficiency) relative to peptide 4 [1]	fold increase in CPP activity (cellular entry efficiency) relative to peptide 4 [1]	other results
CCCCCCCCCC(=O)NC[C@@H]1NC(=O)[C@H](CCC(N)=O)NC(=O)[C@@H](CCCNC(=N)N)NC(=O)[C@H](CCCNC(=N)N)NC(=O)[C@@H](CCCNC(=N)N)NC(=O)[C@H](CCCNC(=N)N)NC1=O [compound 9] (cyclo([Dap](Decanoyl)R[dR]R[dR]Q))	~ 3 fold		
CCCCCCCCCC(=O)NC[C@@H]1NC(=O)[C@H](CCC(N)=O)NC(=O)[C@H](CCCNC(=N)N)NC(=O)[C@@H](CCCNC(=N)N)NC(=O)[C@H](CCCNC(=N)N)NC(=O)[C@@H](CCCNC(=N)N)NC1=O [compound 10] (cyclo([Dap](Decanoyl)[dR]R[dR]RQ))	~ 3 fold		
CCCCCCCCCC(=O)NC[C@@H]1NC(=O)[C@H](CCC(N)=O)NC(=O)[C@H](CCCNC(=N)N)NC(=O)[C@H](CCCNC(=N)N)NC(=O)[C@H](CCCNC(=N)N)NC(=O)[C@H](C)NC1=O [compound 12] (cyclo(ARRRQ[Dap](Decanoyl)))	~ 2 fold		
CCCCCCCCCC(=O)NCCC[C@@H]1NC(=O)[C@H](CCC(N)=O)NC(=O)[C@H](CCCNC(=N)N)NC(=O)[C@H](CCCNC(=N)N)NC(=O)[C@H](CCCNC(=N)N)NC(=O)[C@H](CCCNC(=N)N)NC1=O [compound 15] (cyclo([Orn](Decanoyl)RRRRQ))		2 fold	
CCCCCCCCCC(=O)NC[C@@H]1NC(=O)[C@H](CCC(N)=O)NC(=O)[C@H](CCCNC(=N)N)NC(=O)[C@H](CCCNC(=N)N)NC(=O)[C@H](CCCNC(=N)N)NC(=O)[C@H](CCCNC(=N)N)NC(=O)[C@H](CCCNC(=N)N)NC1=O [peptide 14]	~5 fold		
CCCCCCCCCC(=O)NCCCC[C@@H]1NC(=O)[C@H](CCC(N)=O)NC(=O)[C@H](CCCNC(=N)N)NC(=O)[C@H](CCCNC(=N)N)NC(=O)[C@H](CCCNC(=N)N)NC(=O)[C@H](CCCNC(=N)N)NC1=O [peptide 16] (cyclo(K(Decanoyl)RRRRQ))		1.3 fold	
CCCCCCCCCCNC(=O)C[C@@H]1NC(=O)[C@H](CCC(N)=O)NC(=O)[C@H](CCCNC(=N)N)NC(=O)[C@H](CCCNC(=N)N)NC(=O)[C@H](CCCNC(=N)N)NC(=O)[C@H](CCCNC(=N)N)NC1=O [peptide 17] (cyclo(D(NHDecyl)RRRRQ))		~ 5 fold	fold more active than CPP12 (cellular entry efficiency) [1]: 2.8 fold; reduction of cell viability ([2]; ≤25 μM peptide, not concentration-dependent): ~ 30%; effect on cell viability at higher concentrations ([2]; ≥50 μM peptide): significant loss of HeLa cell viability
